Measured values from patent US6406679B1, “Use of HL-60-related lectins in drug delivery and detection of lectin-expressing cells” (Incyte Pharmaceuticals, Inc., priority 1992, dated 2002).

Tests used:
BALB/c mice [1] = assay: B-cell repertoire: hybridoma clones producing antibodies against the immunizing antigen; format: in vivo, mouse; details: for Number of Clones Producing Antibodies: 180 primary clones; for Experimental % of Control: clones with lectin vs antigen only
Method: The effect of the recombinant lectin on B-cell activation in BALB/c mice was also assayed using standard assays determining the number of hybridomas secreting antibodies to the administered antigen.
Three BALB/c female mice (7-8 weeks old) were injected intraperitoneally with 5 μg of […], tetanus toxoid or pneumococcal polysaccharide, respectively, in complete Freund's adjuvant. Two weeks later, the mice were injected intravenously with the same amount of antigen in 0.15 M sodium phosphate buffer, pH 7.4. […]. A mixture of capsular polysaccharide extracts from 23 different serotypes of Streptococcus pneumoniae (Pneumovax®) was obtained from Merck Sharp & Dohme, Inc. (West Point, Pa.). Three other mice of the same strain were similarly immunized with these antigens in combination with 15 μg of the recombinant lectin; controls received only the antigens.
The animals were sacrificed 4 days after the booster injection and spleen cells (10^8 cells) were fused with the nonsecreting B-lymphocytoma cell line SP2-OAg14 (2×10^7 cells). The cell mixture was distributed in 6×96 Costar tray wells (2×10^5 cells/well) with a feeder layer of mouse peritoneal macrophages (5×10^5 cells/well). From the third day in culture HAT (hypoxanthine-aminopterin-thymidine) medium was added. After 10-14 days, supernatants were assayed for binding to the respective antigens used for immunization using an enzyme-linked immunosorbent assay (ELISA).

BALB/c mice [2] = assay: Primary immune response: serum antibody levels; format: in vivo, mouse
Method: The effect of coadministration of lectin on the B-cell repertoire mounted as a primary response to immunization was also tested directly by antibody formation in the sera. Immunoassays for antibody content for the various antigens were performed as follows:
For immunization with Torpedo acetylcholine receptor, microtiter: wells were coated overnight with 100 μl of a solution containing 5 μg/ml of purified receptor as prepared in Example 8, Part A, and incubated with serum (diluted 1/25) for 3 hours at 37° C. After washing, the plates were incubated for 3 hours at 37° C. with alkaline phosphatase-conjugated goat anti-mouse immunoglobulins. The plates were then washed extensively and incubated for 1 hour at 37° C. with […] ethanolamine buffer. The reaction was stopped by addition of 25 μl of 3 M NaOH, and the binding of the labeled antibody was measured in an ELISA microreader at 405 nm. […]
For antibodies against mouse AChR, antibodies were determined using as antigen a complex between a partially purified normal mouse skeletal muscle receptor and ^125I-alpha-bungarotoxin. […]
. […] The reaction was stopped by addition of 25 μl of 3 M NaOH, and the binding of the labeled antibody was measured in an ELISA microreader at 405 nm. […]
. Blood was obtained after 3 days and again after 1, 2, 3 and 4 weeks and antibody levels were determined as described above.

lymph node cells [3] = assay: Response of lymph node cells to the lectin (mitogenicity); format: cell-based, rat; details: data not shown
T-cell lines = assay: Selection of GPBP-specific T-cell lines from draining lymph nodes; format: in vivo, rat; details: lectin-treated rats
Source text: In a follow-up experiment, T-cell lines were selected from the draining lymph nodes.

rats = assay: Skin allograft, single grafts (FIG. 14); format: in vivo, rat; details: 5 mg/kg recombinant lectin
Method: In this experiment, 5 mg/kg recombinant lectin was used on rats bearing single grafts and the day of graft rejection was noted.

lymph node cells [4] = assay: In vivo effect of lectin on phenotypes of lymphocytes (antibody staining); design: species or system rat; details: for % positive / F^L / % CHANGE IN POSITIVES: Lymph Node Cells
Spleen Cells = assay: as above; design: species or system rat; details: for % positive / F^L / % CHANGE IN POSITIVES: Spleen Cells
Human blood cells = assay: Staining of lectin-pretreated human blood cells with fluoresceinated antibodies (histogram analyses); format: cell-based
Source text: Human blood cells were pretreated with the inventive HL-60 lectin and then stained with fluoresceinated antibody having several different specificities. Control cells were not pretreated with lectin. […] However, the effect of lectin treatment on M1 and M3 macrophages was significant.

[5] = antibody 0X6, lectin vs control
[6] = antibody 0X8 (suppressor T-cells)
[7] = antibody 0X8, lectin vs control
[8] = antibody 0X12, lectin vs control
[9] = antibody IgG, lectin-treated rats
[10] = antibody W3/13, lectin vs control
[11] = antibody W3/25 (helper T-cells)
[12] = antibody W3/25, lectin vs control
[13] = HLA-DR, lectin-pretreated cells
[14] = NK(L-A), lectin-pretreated cells

Lectin: Soluble 14 kD β-galactoside-binding HL-60/placenta lectin of FIG. 1 (SEQ ID NO:2), prepared recombinantly in E. coli
Number of Clones Producing Antibodies (BALB/c mice [1]; Pneumococcal polysaccharide + 15 μg lectin): 111 | Experimental % of Control (BALB/c mice [1]; Pneumococcal polysaccharide): 78% | Number of Clones Producing Antibodies (BALB/c mice [1]; Tetanus toxoid + 15 μg lectin): 79 | Experimental % of Control (BALB/c mice [1]; Tetanus toxoid): 48% | Number of Clones Producing Antibodies (BALB/c mice [1]; Torpedo receptor + 15 μg lectin): 54 | Experimental % of Control (BALB/c mice [1]; Torpedo receptor): 41% | primary immune response to pneumococcal polysaccharide (T-independent antigen) (BALB/c mice [2]; any dose, FIG. 7): No effect | primary immune response to T-dependent antigens (BALB/c mice [2]; higher doses of lectin (15 and 25 μg), FIGS. 6, 8, 9): significantly lowered | mitogenicity for lymph node cells (lymph node cells [3]): not mitogenic | GPBP-specific T-cell lines from draining lymph nodes (T-cell lines): no lines could be established | rejection of the skin allograft (rats): considerably delayed | % positive (lymph node cells [4]; antibody 0X6): 10.0% | F^L (lymph node cells [4]; antibody 0X6): 1208 | % CHANGE IN POSITIVES (lymph node cells [4]; [5]): 0% | % positive (lymph node cells [4]; antibody 0X8): 30.3% | F^L (lymph node cells [4]; [6]): 472 | % CHANGE IN POSITIVES (lymph node cells [4]; [7]): +28% | % positive (lymph node cells [4]; antibody 0X12): 9.9% | F^L (lymph node cells [4]; antibody 0X12): 316 | % CHANGE IN POSITIVES (lymph node cells [4]; [8]): 0% | % positive (lymph node cells [4]; [9]): 16.4% | F^L (lymph node cells [4]; [9]): 129 | % positive (lymph node cells [4]; antibody W3/13): 99.5% | F^L (lymph node cells [4]; antibody W3/13 (total T-cells)): 442 | % CHANGE IN POSITIVES (lymph node cells [4]; [10]): 0% | % positive (lymph node cells [4]; antibody W3/25): 76.5% | F^L (lymph node cells [4]; [11]): 230 | % CHANGE IN POSITIVES (lymph node cells [4]; [12]): −0% | increase in the number of rat lymph node suppressor T-cells (0X8 reactive) (lymph node cells [4]; lectin-treated animals): 28% | % positive (Spleen Cells; antibody 0X6): 15.6% | F^L (Spleen Cells; antibody 0X6): 375 | % CHANGE IN POSITIVES (Spleen Cells; [5]): 0% | % positive (Spleen Cells; antibody 0X8): 41.2% | F^L (Spleen Cells; [6]): 323 | % CHANGE IN POSITIVES (Spleen Cells; [7]): +32% | % positive (Spleen Cells; antibody 0X12): 15.4% | F^L (Spleen Cells; antibody 0X12): 363 | % CHANGE IN POSITIVES (Spleen Cells; [8]): 0% | % positive (Spleen Cells; [9]): 24.3% | F^L (Spleen Cells; [9]): 129 | % positive (Spleen Cells; antibody W3/13): 85.9% | F^L (Spleen Cells; antibody W3/13 (total T-cells)): 311 | % CHANGE IN POSITIVES (Spleen Cells; [10]): −19% | % positive (Spleen Cells; antibody W3/25): 67.2% | F^L (Spleen Cells; [11]): 161 | % CHANGE IN POSITIVES (Spleen Cells; [12]): −24% | decrease in the numbers of spleen helper T-cells (w3/25 antibody reactive) (Spleen Cells; lectin-treated animals): 19% | decrease in the numbers of spleen total T-cells (w3/13 antibody reactive) (Spleen Cells; lectin-treated animals): 24% | increase in the number of spleen suppressor T-cells (Spleen Cells; lectin-treated animals): 32% | +FL1 (Human blood cells; CD3+, lectin-pretreated cells): 458 | +mode (Human blood cells; CD3+, lectin-pretreated cells): 416 | percent (Human blood cells; CD3+, lectin-pretreated cells): 77.8% | +FL1 (Human blood cells; CD4+, lectin-pretreated cells): 181.5 | +mode (Human blood cells; CD4+, lectin-pretreated cells): 151 | percent (Human blood cells; CD4+, lectin-pretreated cells): 46.4% | +FL1 (Human blood cells; [13]): 614 | +mode (Human blood cells; [13]): 432 | percent (Human blood cells; [13]): 13.3% | +FL1 (Human blood cells; M1, lectin-pretreated cells): 403 | +mode (Human blood cells; M1, lectin-pretreated cells): 387 | percent (Human blood cells; M1, lectin-pretreated cells): 46.1% | reduction of the percent of positive cells (Human blood cells; M1 macrophages, lectin vs control): 33% | +FL1 (Human blood cells; M3, lectin-pretreated cells): 549 | +mode (Human blood cells; M3, lectin-pretreated cells): 517 | percent (Human blood cells; M3, lectin-pretreated cells): 45.1% | reduction of the percent of positive cells (Human blood cells; M3 macrophages, lectin vs control): 26% | +FL1 (Human blood cells; [14]): 106 | +mode (Human blood cells; [14]): 94.7 | percent (Human blood cells; [14]): 10.8% | changes for CD3+, CD4+, NK(L-A) or HLA-DR cell markers (Human blood cells; lectin vs control): No significant changes
